What was measured:
[1] = biological target: T1, Human neuropeptide Y (NPY-Y1) (Homo sapiens, UniProt P25929); assay: Radioligand binding, human neuropeptide Y NPY-Y1 membranes, FlashPlate, [125I]-PYY; details: compound at 10 μM, [125I]-PYY
T1 construct: purchased Perkin Elmer Biosignal
T1 sequence (P25929 1-384): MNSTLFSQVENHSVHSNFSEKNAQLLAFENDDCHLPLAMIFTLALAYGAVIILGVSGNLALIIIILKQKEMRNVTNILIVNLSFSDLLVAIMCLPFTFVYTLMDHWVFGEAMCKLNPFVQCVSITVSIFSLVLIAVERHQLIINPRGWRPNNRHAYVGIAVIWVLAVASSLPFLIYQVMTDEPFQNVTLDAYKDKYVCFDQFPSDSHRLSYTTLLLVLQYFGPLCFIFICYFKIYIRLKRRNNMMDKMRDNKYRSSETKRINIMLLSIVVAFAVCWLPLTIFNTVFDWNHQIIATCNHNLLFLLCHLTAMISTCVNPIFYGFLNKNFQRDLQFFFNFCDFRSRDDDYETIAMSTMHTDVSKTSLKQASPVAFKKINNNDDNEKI
How it was run: (§1)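 Cloned human receptor membranes were coated onto FlashPlate wells and incubated with radioligand and compound (added from a 0.5 mM DMSO daughter plate) for 1 hour at room temperature in the dark. Scintillation counting gave percent inhibition, with DMSO defining total and reference ligand defining non-specific binding.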

[2] = biological target: T2, Human μ-opioid (MOP) (Homo sapiens, UniProt P35372); assay: Radioligand binding, human μ-opioid (MOP) membranes, FlashPlate, [3H]-Naloxone; details: compound at 10 μM, [3H]-Naloxone
T2 construct: purchased Perkin Elmer Biosignal
How it was run: as §1

[3] = biological target: T3, Human neurokinin (NK1) (Homo sapiens, UniProt P25103); assay: Radioligand binding, human neurokinin NK1 membranes, filtration, [125I]-Substance P; details: compound at 10 μM, [125I]-Substance P
T3 construct: purchased Perkin Elmer Biosignal
How it was run: (§2)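 Filtration binding on cloned human receptor membranes (1 Unit/well), [125I]-Substance P for NK1 and [3H]-Diprenorphine for KOP, 1 h at room temperature. Filters PEI-presoaked, washed with cold 50 mM Tris-HCl pH 7.4, counted by scintillation; percent inhibition calculated, reference ligand defining non-specific binding.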

[4] = biological target: T4, Human opioid (ORL1) (Homo sapiens, UniProt P41146); assay: Radioligand binding, human opioid ORL1 membranes, FlashPlate, [125I]-Nociceptin; details: compound at 10 μM, [125I]-Nociceptin
T4 construct: purchased Perkin Elmer Biosignal
How it was run: as §1

[5] = biological target: T5, Mouse urotensin (mUR2) (Mus musculus, UniProt Q8VIH9); assay: Radioligand binding, mouse urotensin mUR2 membranes, FlashPlate, [125I]-Urotensin II; details: compound at 10 μM, [125I]-Urotensin II
T5 construct: purchased Perkin Elmer Biosignal
T5 sequence (Q8VIH9 1-385): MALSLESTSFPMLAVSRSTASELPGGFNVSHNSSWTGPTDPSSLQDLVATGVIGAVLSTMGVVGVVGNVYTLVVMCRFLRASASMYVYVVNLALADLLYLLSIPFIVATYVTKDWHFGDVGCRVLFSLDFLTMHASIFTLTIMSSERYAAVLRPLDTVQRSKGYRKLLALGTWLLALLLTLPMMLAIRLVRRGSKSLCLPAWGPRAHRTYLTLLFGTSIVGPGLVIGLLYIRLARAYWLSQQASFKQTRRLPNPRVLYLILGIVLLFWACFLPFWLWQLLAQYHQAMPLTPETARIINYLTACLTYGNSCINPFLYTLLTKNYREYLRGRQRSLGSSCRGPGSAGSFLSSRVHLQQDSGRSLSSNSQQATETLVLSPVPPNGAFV
How it was run: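 Cloned mouse urotensin (mUR2) receptor membranes from Perkin Elmer Biosignal were immobilized in FlashPlate microplates using a proprietary coating. Each well got 19.5 μl buffer, then 0.5 μl of DMSO, reference ligand, or compound. Adding 5 μl of [125I]-Urotensin II, diluted to 5× final concentration in binding buffer, started binding. Plates were sealed with TopSeal-A and incubated 1 hour at room temperature in the dark. Wells were counted for 30 seconds each on a TopCount after a 60-second delay, and percentage inhibition was calculated.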

[6] = biological target: T6, Human Melanocortin (MC4) (Homo sapiens, UniProt P32245); assay: Radioligand binding, human melanocortin MC4 membranes, FlashPlate, [125I]-NDP-αMSH; details: compound at 10 μM, [125I]-NDP-αMSH
T6 construct: purchased Perkin Elmer Biosignal
How it was run: as §1

[7] = biological target: T7, Human Melanocortin (MC3) (Homo sapiens, UniProt P41968); assay: Radioligand binding, human melanocortin MC3 membranes, FlashPlate, [125I]-NDP-αMSH; details: compound at 10 μM, [125I]-NDP-αMSH
T7 construct: purchased Perkin Elmer Biosignal
How it was run: as §1

[8] = biological target: T8, Human melanocortin (MC5) (Homo sapiens, UniProt P33032); assay: Radioligand binding, human melanocortin MC5 membranes, FlashPlate, [125I]-NDP-αMSH; details: compound at 10 μM, [125I]-NDP-αMSH
T8 construct: purchased Perkin Elmer Biosignal
How it was run: as §1

[9] = biological target: T9, Human κ-Opioid (KOP) (Homo sapiens, UniProt P41145); assay: Radioligand binding, human κ-opioid (KOP) membranes, filtration, [3H]-Diprenorphine; details: compound at 10 μM, [3H]-Diprenorphine
T9 construct: purchased Perkin Elmer Biosignal
How it was run: as §2

[10] = biological target: T10, Human melanin-concentrating hormone (MCH1) (Homo sapiens, UniProt Q99705); assay: Radioligand binding, human melanin-concentrating hormone MCH1 membranes, FlashPlate, [125I]-S36057; details: compound at 10 μM
T10 construct: purchased Perkin Elmer Biosignal
How it was run: as §1

[11] = biological target: T11, Human δ-opioid (DOP) (Homo sapiens, UniProt P41143); assay: Radioligand binding, human δ-opioid (DOP) membranes, FlashPlate, [3H]-Bremazocine; details: compound at 10 μM, [3H]-Bremazocine
T11 construct: purchased Perkin Elmer Biosignal
How it was run: as §1

T4 sequence (P41146 whole entry): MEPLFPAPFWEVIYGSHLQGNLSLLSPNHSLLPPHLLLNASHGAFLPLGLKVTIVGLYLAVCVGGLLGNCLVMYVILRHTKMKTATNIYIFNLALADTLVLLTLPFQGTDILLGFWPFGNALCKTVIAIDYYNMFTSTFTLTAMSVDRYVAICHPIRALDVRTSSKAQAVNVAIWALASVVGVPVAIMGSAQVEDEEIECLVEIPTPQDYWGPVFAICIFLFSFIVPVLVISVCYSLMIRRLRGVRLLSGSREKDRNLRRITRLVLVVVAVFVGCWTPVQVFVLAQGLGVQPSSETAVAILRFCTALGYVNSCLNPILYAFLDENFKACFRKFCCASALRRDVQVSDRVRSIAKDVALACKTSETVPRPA
T6 sequence (P32245 whole entry): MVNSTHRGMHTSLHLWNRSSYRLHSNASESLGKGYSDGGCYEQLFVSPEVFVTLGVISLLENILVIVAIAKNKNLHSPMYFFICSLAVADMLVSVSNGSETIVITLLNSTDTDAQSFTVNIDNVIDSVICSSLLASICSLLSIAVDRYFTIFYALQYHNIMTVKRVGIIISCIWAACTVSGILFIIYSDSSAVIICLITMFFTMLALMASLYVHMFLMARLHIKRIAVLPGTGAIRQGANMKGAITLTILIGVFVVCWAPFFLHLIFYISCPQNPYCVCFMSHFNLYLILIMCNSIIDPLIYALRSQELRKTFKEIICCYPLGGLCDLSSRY
T3 sequence (P25103 whole entry): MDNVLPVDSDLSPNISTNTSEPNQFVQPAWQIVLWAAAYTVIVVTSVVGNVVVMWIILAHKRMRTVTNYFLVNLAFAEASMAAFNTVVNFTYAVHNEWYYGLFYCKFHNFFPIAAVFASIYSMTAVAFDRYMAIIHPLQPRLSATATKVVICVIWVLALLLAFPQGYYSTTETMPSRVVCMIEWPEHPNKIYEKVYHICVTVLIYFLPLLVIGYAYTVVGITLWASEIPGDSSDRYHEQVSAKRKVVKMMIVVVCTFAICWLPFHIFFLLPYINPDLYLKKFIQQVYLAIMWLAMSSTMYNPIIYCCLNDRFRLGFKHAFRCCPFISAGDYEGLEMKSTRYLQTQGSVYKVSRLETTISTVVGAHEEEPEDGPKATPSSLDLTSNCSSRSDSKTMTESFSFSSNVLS
T11 sequence (P41143 whole entry): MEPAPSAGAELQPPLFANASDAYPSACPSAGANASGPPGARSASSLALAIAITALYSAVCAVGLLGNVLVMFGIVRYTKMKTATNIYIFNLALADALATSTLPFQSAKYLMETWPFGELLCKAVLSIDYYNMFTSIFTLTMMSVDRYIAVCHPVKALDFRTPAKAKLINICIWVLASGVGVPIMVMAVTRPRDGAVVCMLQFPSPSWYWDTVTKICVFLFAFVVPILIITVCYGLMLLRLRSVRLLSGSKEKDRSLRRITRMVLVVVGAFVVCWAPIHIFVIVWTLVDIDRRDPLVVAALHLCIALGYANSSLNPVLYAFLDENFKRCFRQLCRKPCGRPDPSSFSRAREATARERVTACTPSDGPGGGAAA
T2 sequence (P35372 whole entry): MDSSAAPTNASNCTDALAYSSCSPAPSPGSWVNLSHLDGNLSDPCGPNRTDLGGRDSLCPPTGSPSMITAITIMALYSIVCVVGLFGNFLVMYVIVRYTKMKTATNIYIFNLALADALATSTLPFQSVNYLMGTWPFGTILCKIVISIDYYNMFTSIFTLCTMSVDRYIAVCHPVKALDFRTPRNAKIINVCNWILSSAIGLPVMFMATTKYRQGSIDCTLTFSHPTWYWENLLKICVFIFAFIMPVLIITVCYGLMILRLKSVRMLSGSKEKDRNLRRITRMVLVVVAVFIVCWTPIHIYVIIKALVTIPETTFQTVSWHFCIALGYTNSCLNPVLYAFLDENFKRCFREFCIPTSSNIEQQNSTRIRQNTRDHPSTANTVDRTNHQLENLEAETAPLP
T8 sequence (P33032 whole entry): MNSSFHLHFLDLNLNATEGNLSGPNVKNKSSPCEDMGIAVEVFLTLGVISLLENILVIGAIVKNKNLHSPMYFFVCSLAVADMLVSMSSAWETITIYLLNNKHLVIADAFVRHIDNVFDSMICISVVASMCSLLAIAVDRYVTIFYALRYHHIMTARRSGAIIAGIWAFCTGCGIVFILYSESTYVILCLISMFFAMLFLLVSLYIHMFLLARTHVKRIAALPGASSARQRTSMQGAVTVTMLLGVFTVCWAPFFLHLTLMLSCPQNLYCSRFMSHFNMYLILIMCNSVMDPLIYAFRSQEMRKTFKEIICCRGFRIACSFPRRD
T9 sequence (P41145 whole entry): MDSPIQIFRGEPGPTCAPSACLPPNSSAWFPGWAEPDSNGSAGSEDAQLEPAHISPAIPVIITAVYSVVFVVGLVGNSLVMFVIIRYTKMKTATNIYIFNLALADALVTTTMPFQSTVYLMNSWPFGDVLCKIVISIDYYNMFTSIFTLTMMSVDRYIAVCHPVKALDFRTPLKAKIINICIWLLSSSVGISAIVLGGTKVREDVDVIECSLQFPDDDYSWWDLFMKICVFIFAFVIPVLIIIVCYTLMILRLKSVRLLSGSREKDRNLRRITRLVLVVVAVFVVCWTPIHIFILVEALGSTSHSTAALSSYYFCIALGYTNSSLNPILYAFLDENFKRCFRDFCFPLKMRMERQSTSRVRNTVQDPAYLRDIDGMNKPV
T10 sequence (Q99705 whole entry): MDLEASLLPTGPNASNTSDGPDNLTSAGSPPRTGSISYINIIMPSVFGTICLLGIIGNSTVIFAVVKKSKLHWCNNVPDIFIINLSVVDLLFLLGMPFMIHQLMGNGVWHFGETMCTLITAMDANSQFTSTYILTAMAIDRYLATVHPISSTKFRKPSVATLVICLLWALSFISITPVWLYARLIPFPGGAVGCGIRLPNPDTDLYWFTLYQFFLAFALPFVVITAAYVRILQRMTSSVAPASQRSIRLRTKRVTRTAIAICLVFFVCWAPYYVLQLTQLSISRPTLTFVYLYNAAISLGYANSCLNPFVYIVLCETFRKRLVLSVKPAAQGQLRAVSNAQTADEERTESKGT
T7 sequence (P41968 whole entry): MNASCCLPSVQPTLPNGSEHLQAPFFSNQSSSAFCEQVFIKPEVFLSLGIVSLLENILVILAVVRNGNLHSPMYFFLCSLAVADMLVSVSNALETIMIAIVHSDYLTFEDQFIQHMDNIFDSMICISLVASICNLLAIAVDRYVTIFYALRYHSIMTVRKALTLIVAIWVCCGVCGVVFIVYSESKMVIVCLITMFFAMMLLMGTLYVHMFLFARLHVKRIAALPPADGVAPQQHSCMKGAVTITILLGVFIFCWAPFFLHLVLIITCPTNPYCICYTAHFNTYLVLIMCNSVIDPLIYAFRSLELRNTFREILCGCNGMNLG

Compound | A9: inhibition of radioligand binding, human neuropeptide Y (NPY-Y1) [1] | A7: inhibition of radioligand binding, human μ-opioid (MOP) [2] | A8: inhibition of radioligand binding, human neurokinin (NK1) [3] | A10: inhibition of radioligand binding, human opioid (ORL1) ([4]; 10 µM) | A11: inhibition of radioligand binding, mouse urotensin (mUR2) [5] | A4: inhibition of radioligand binding, human melanocortin (MC4) [6] | A3: inhibition of radioligand binding, human melanocortin (MC3) [7] | A5: inhibition of radioligand binding, human melanocortin (MC5) [8] | A2: inhibition of radioligand binding, human κ-opioid (KOP) [9] | A6: inhibition of radioligand binding, human melanin-concentrating hormone (MCH1) ([10]; [125I]-S36057) | A1: inhibition of radioligand binding, human δ-opioid (DOP) [11] | further results
N=C(N)NCC(=O)N[C@H]1C(OCc2ccc(Cl)cc2)O[C@H](COCc2ccc(Cl)cc2)[C@@H](O)[C@@H]1OCc1ccc(-c2ccccc2)cc1 (stereo partly shown) [compound 520] | − (“−” indicates less than 50% inhibition at 10 μM) | − (“−” indicates less than 50% inhibition at 10 μM) | + (“+” indicates greater than 50% inhibition at 10 μM) | − (“−” indicates less than 50% inhibition at 10 μM) | − (“−” indicates less than 50% inhibition at 10 μM) | + (“+” indicates greater than 50% inhibition at 10 μM) | + (“+” indicates greater than 50% inhibition at 10 μM) | + (“+” indicates greater than 50% inhibition at 10 μM) | − (“−” indicates less than 50% inhibition at 10 μM) | + (“+” indicates greater than 50% inhibition at 10 μM) | − (“−” indicates less than 50% inhibition at 10 μM) | 
CO[C@H]1[C@H](O)[C@@H](COCc2cccc(O)c2)OC(OCc2ccc(-c3ccccc3)cc2)[C@@H]1NC(=O)CCNC(=N)N (stereo partly shown) [compound 147] |  |  |  |  |  |  |  |  |  |  |  | A9 radioligand binding, percentage inhibition [1]: − (“−” indicates less than 50% inhibition at 10 μM); A7 radioligand binding, percentage inhibition [2]: + (“+” indicates greater than 50% inhibition at 10 μM); A8 radioligand binding, percentage inhibition [3]: + (“+” indicates greater than 50% inhibition at 10 μM); A10 radioligand binding, percentage inhibition [4]: − (“−” indicates less than 50% inhibition at 10 μM); A11 radioligand binding, percentage inhibition [5]: − (“−” indicates less than 50% inhibition at 10 μM); A4 radioligand binding, percentage inhibition [6]: + (“+” indicates greater than 50% inhibition at 10 μM); A3 radioligand binding, percentage inhibition [7]: − (“−” indicates less than 50% inhibition at 10 μM); A5 radioligand binding, percentage inhibition [8]: + (“+” indicates greater than 50% inhibition at 10 μM); A2 radioligand binding, percentage inhibition [9]: + (“+” indicates greater than 50% inhibition at 10 μM); A6 radioligand binding, percentage inhibition ([10]; [125I]-S36057): + (“+” indicates greater than 50% inhibition at 10 μM); A1 radioligand binding, percentage inhibition [11]: − (“−” indicates less than 50% inhibition at 10 μM)
NCCCC(=O)NC1C(OCc2ccc3ccccc3c2)OC(COCc2ccccc2)C(O)C1OCc1ccccc1 (single isomer, unassigned) [compound 467] |  |  |  |  |  |  |  |  |  |  |  | A9: inhibition of radioligand binding ([1]; human NPY-Y1 membranes): − (“−” indicates less than 50% inhibition at 10 μM); A7: inhibition of radioligand binding ([2]; human MOP membranes, 10 µM): − (“−” indicates less than 50% inhibition at 10 μM); A8: inhibition of radioligand binding ([3]; human NK1 membranes): + (“+” indicates greater than 50% inhibition at 10 μM); A10: inhibition of radioligand binding ([4]; human ORL1 membranes, 10 µM): − (“−” indicates less than 50% inhibition at 10 μM); A11: inhibition of radioligand binding ([5]; mouse mUR2 membranes): − (“−” indicates less than 50% inhibition at 10 μM); A4: inhibition of radioligand binding ([6]; human MC4 membranes, 10 µM): − (“−” indicates less than 50% inhibition at 10 μM); A3: inhibition of radioligand binding ([7]; human MC3 membranes): − (“−” indicates less than 50% inhibition at 10 μM); A5: inhibition of radioligand binding ([8]; human MC5 membranes): − (“−” indicates less than 50% inhibition at 10 μM); A2: inhibition of radioligand binding ([9]; human KOP membranes): − (“−” indicates less than 50% inhibition at 10 μM); A6: inhibition of radioligand binding ([10]; [125I]-S36057, human MCH1 membranes): − (“−” indicates less than 50% inhibition at 10 μM); A1: inhibition of radioligand binding ([11]; human DOP membranes): − (“−” indicates less than 50% inhibition at 10 μM)
CSC1OC(COCc2cccc(N)c2)C(O)C(OCc2ccc(Cl)cc2)C1NC(=O)c1c[nH]c2ccccc12 (stereo not shown) [compound 334] | − (“−” indicates less than 50% inhibition at 10 μM) | − (“−” indicates less than 50% inhibition at 10 μM) | + (“+” indicates greater than 50% inhibition at 10 μM) |  | − (“−” indicates less than 50% inhibition at 10 μM) | − (“−” indicates less than 50% inhibition at 10 μM) | − (“−” indicates less than 50% inhibition at 10 μM) | − (“−” indicates less than 50% inhibition at 10 μM) | − (“−” indicates less than 50% inhibition at 10 μM) | − (“−” indicates less than 50% inhibition at 10 μM) | − (“−” indicates less than 50% inhibition at 10 μM) | A10: inhibition of radioligand binding, human opioid (ORL1) [4]: − (“−” indicates less than 50% inhibition at 10 μM)
NCCC(=O)NC1C(OCc2ccc(Cl)cc2)OC(COCc2ccc3ccccc3c2)C(O)C1OCc1ccc2ccccc2c1 (single isomer, unassigned) [compound 477] | − (“−” indicates less than 50% inhibition at 10 μM) | − (“−” indicates less than 50% inhibition at 10 μM) | + (“+” indicates greater than 50% inhibition at 10 μM) | + (“+” indicates greater than 50% inhibition at 10 μM) | − (“−” indicates less than 50% inhibition at 10 μM) |  |  | + (“+” indicates greater than 50% inhibition at 10 μM) | − (“−” indicates less than 50% inhibition at 10 μM) |  | − (“−” indicates less than 50% inhibition at 10 μM) | A4: inhibition of radioligand binding, human melanocortin (MC4) ([6]; 10 µM): − (“−” indicates less than 50% inhibition at 10 μM); A3: inhibition of radioligand binding, human melanocortin (MC3) ([7]; 10 µM): − (“−” indicates less than 50% inhibition at 10 μM); A6: inhibition of radioligand binding, human melanin-concentrating hormone (MCH1) ([10]; [125I]-S36057, 10 µM): − (“−” indicates less than 50% inhibition at 10 μM)

— patent US20080009418A1, “Selective Inhibitors” (Alchemia LTD., priority 2004, published 2008)
